Data from patent US7888118B2, “2-{2-[5-(3-chlorophenyl)]furanyl}-4,5-bis(4-methoxyphenyl)imidazole and methods for inducing differentiation of myoblasts or muscle fibers into neuron cells” (Industry-Academic Cooperation Foundation, Yonsei University, priority 2005, dated 2011).

Legend:
Murine myoblasts (C2C12) = assay: Neurite outgrowth / neuron differentiation of myoblasts observed by light microscope; format: cell-based
Procedure: Murine myoblasts (C2C12) are usually cultured in RPMI 1640 or DMEM supplemented with 10% FBS, 50 units/mL penicillin and 50 μg/mL of streptomycin at 37° C. with 5% CO2 in air atmosphere.
For the small molecule screen, the cultured C2C12 cells are seeded in a 96-well plate at a density of 10^3 cells per well in culture media. After 24 h, the culture media are replaced with differentiation media (RPMI 1640 or DMEM containing 1% FBS, 50 units/mL penicillin and 50 μg/mL of streptomycin). Test compounds are then added at a final concentration of 5-10 μM. After 96 h incubation, morphological changes of cells are observed by a light microscope (Nikon Eclipse TE2000) to detect neurite outgrowth characteristic of neuron differentiation. To ascertain neuron differentiation, the cells are washed with PBS and loaded FM1-43 (a final concentration: 2 μM, Molecular Probes) dissolved in Ringer buffer containing 100 mM KCl. […] Fluorescent intensity of the treated cells (excitation wavelength: 470 nm, emission wavelength: 540 nm) is read on a fluorescent microplate reader (SpectraMax GeminiEM, Molecular Devices).
An imidazole library of about 300 compounds is added at a final concentration of 5-10 μM. […] Fluorescent intensity (excitation wavelength: 470 nm, emission wavelength: 540 nm) is read on a fluorescent microplate reader (SpectraMax GeminiEM, Molecular Devices).

[1] = system: human single muscle fibers; assay: Differentiation of isolated human muscle fibers into neuron cells; format: cell-based
Procedure: Single fibers of human skeletal muscle are obtained as described previously (In Vitro Cell Dev Biol Anim. 2002, 38, 66). A sample of skeletal muscle is dissected from the abductor hallucis muscle. The sample is collected and transported in single fiber culture media (Ham's F-10 medium supplemented with 10% FBS, 2% chick embryo extract and 1.5 μg/mL amphotericin B). The muscle sample is incubated in 10 mL single fiber culture media containing 0.1% collagenase in a 50 mL Falcon™ tube for 1 h at 37° C. Bundles of muscle fibers are carefully dissected using a scalpel. The bundles are laid in a Petri dish containing 10 mL single fiber culture media with 0.1% collagenase at 37° C. for 5 h. Isolation of single muscle fibers is carried out by repeatedly triturating the muscle sample with a wide-mouthed Pasteur pipette. Isolated muscle fibers that have not undergone hypercontraction (which renders them unsuitable for plating in culture dishes) are placed in matrigel-coated 6-well plates at a density of three fibers per well. Fibers are plated in one drop of single fiber culture media and allowed to attach for 6 h and then 1 mL of media is added to the culture. After 24 h, the media are changed to single fiber culture media without amphotericin B.
After 5 days, populations of satellite muscle precursor cells migrate from the fiber and begin to proliferate. […]

With `COc1ccc(-c2nc(-c3ccc(-c4cccc(Cl)c4)o3)[nH]c2-c2ccc(OC)cc2)cc1` [Neurodazine 1, 2-{2-[5-(3-chlorophenyl)]furanyl}-4,5-bis(4-methoxyphenyl)imidazole] the “differentiation of myoblasts into neuron cells (FIG. 2)” value (Murine myoblasts (C2C12)) was “Differentiated neuron cells from myoblasts” and the “differentiation of muscle fibers into neuron cells (FIG. 3)” value [1] was “Differentiated neuron cells from muscle fibers”.
